The values that follow come from patent publication US9861117B2 (priority 2009, dated 2018).

Data set [1] relates to Clostridium perfringens. It is filed as cell-based.
The subject of data set [2] is Clostridium perfringens. It is filed as in vivo, broilers. Particulars: 1000 ppm in feed; for Clostridium perfringens counts in jejunum: day 13 of age. Also on record: Clostridium perfringens counts in jejunum: unit not given here.
Data set [3] relates to Clostridium perfringens. The format is in vivo. Particulars: 0-42 day, infected broilers, 1000 ppm in feed.
A short description of data set [4]: Diarrhoea score of weaned piglets fed supplemented feed. Particulars: 1000 ppm in feed; for Diarrhoea score: average over the total period.
A short description of data set [5]: Recovery in duodenum, jejunum and ileum of broilers fed supplemented feed. The format is in vivo. Particulars: 1000 ppm in feed, day 43 of age, FIG. 3. An excerpt:
Broilers were offered feed supplemented with 1000 ppm of either dodecanoic acid or ethyl dodecanoate throughout the trial. At day 43 of age, 12 birds per treatment were sacrificed and the content of the duodenum, jejunum and ileum was harvested and analysed for levels of ethyl dodecanoate and dodecanoic acid. In FIG. 3 the mean levels are depicted.

Setting [6] is: Example 1, FIG. 1, all tested levels, broth, 8 hours.
The mark [7] stands for this setting: Challenged broilers (10^8 CFU C. perfringens day 9-11).
[8] abbreviates: Overall (challenged and non-challenged).

SMILES strings stand for the structures. Where two headings read alike, the source gives them in different places.

Turning to `CCCCCCCC(=O)OC` [methyl octanoate], in the data set with Clostridium perfringens [1] (setting [6]), the “Inhibition of growth of Clostridium perfringens (OD)” value (“Inhibition” below) is “nearly the same results”.
As to `CCCCCCCCCCCC(=O)O` [dodecanoic acid, reference compound], the “Clostridium perfringens counts in jejunum” value in the data set with Clostridium perfringens [2] (setting [7]) is given as 2.122. For the same compound, the “Clostridium perfringens counts in jejunum” value with Clostridium perfringens [2] (Non-challenged broilers) is listed as 1.418. Also, in the data set with Clostridium perfringens [2] (setting [8]), the “Clostridium perfringens counts in jejunum” value amounted to 1.770. Besides, the “Inhibition” value in the data set on Clostridium perfringens [1] (Example 2, FIG. 2, at 67 ppm) is reported as “not as effective”. In addition, in the data set with Clostridium perfringens [3], the Feed conversion ratio is recorded as 1.636, the Feed intake amounted to 104.3 g/day, the Mortality was determined as 8.333% and the Weight gain was determined as 63.78 g/day. Besides, the Diarrhoea score in data set [4] amounted to 46.64 ab.
For the compound `CCCCCCCCCCCC(=O)OCC` [ethyl dodecanoate], the “Level recovered in the jejunum” value in data set [5] is listed as “higher than the free fatty acid”. Further, the “Clostridium perfringens counts in jejunum” value in the data set on Clostridium perfringens [2] (setting [7]) is recorded as 0.977. Moreover, the “Clostridium perfringens counts in jejunum” value in the data set with Clostridium perfringens [2] (Non-challenged broilers) came out at 1.048. The “Clostridium perfringens counts in jejunum” value with Clostridium perfringens [2] (setting [8]) amounted to 1.013. Besides, the “Effect on Clostridium counts in jejunum (in words)” value with Clostridium perfringens [2] (broilers, versus dodecanoic acid) is listed as “overall significant reduction”. For the same compound, the “Inhibition” value with Clostridium perfringens [1] (setting [6]) is listed as “complete inhibition”. The “Inhibition” value in the data set on Clostridium perfringens [1] (Example 2, FIG. 2, lowest inclusion level of treatment) is listed as “complete inhibition”. In the data set on Clostridium perfringens [3], the Feed conversion ratio came to 1.626, the Feed intake was found to be 106.5 g/day, the Mortality came out at 4.621% and the Weight gain came to 65.5 g/day. This compound also yielded a Diarrhoea score in data set [4] of 42.41 b. Besides, in data set [4] (versus control), the “Effect on diarrhoea (in words)” value is given as “significantly reduce diarrhoea”.
